Data set [1] concerns Human LX-2 Hepatic Stellate Cells. The data set is described as follows: Cell viability analysis, LX-2 culture. The format is cell-based. The following applies: end of treatment (24 hours). Here is the method: (§1) Human LX-2 Hepatic Stellate Cells (Millipore-Sigma, Cat. #SCC064) were cultured in 96-well plates. Treatments were applied in triplicate wells (applied 100 ul treatments per well) for 24 hours. Cells were near confluence at the start of treatments. […] Spent culture medium collected at the end of the treatments was assayed for procollagen and fibronectin by enzyme-linked immunosorbent assays (ELISA) (Procollagen ELISA antibody pair (ab216064) and fibronectin ELISA antibody pair (ab222262) from Abcam). Procollagen and fibronectin were not detected in medium not applied to cells. Procollagen and fibronectin levels in the medium are represented by means±SD (bars) from 3 replicate wells (open circles).

The test system of data set [2] is Human renal mesangial cells. Put plainly: Cell viability analysis, renal mesangial cell culture. The format is cell-based. The following applies: end of 4 days of treatment. On the procedure: as §1, with “renal mesangial cells (ScienCell,” for “LX-2 Hepatic Stellate Cells (Millipore-Sigma,”, “#4200 (SC))” for “#SCC064)”, “2 days, then re-applied for an additional 2 days.” for “24 hours.”, “from Day 2-4” for “at the end”, “treatment” for “the treatments”

Data set [3] has as its system five different types of fibroblasts. Put plainly: ECM production (procollagen, fibronectin ELISA), summary over five types of fibroblasts. As to conditions: dose-dependent; at clinically relevant concentrations. The format is cell-based, Human. From the text:
In the present example, five different types of fibroblasts, including (1) lung fibroblasts from a patient with idiopathic pulmonary fibrosis (“IPF”), (2) cardiac fibroblasts, (3) dermal (skin) fibroblasts, (4) renal mesangial cells, and (5) the LX2 hepatic stellate cell line, were used to determine the ability of CRV431 in decreasing production of the ECM molecules, collagen and fibronectin.
The extent of inhibition was similar whether or not the cells were stimulated with the profibrotic agent, transforming growth factor-beta (TGFβ), consistent with direct effects on ECM synthesis.

For data set [4] the test system is unchanged. Put plainly: Cell viability, summary over five types of fibroblasts. It is filed as cell-based, Human. The following applies: at clinically relevant concentrations.
For data set [5], the system named is human precision cut IPF lung slices. The data set is described as follows: Secreted markers (ELISA) in precision cut IPF lung slices in culture. The format is cell-based. The following applies: CRV431 applied at 5 μM; 4 daily treatment intervals; relative to DMSO vehicle. Here is the method: This example describes a study conducted with precision cut lung slices. Precision cut slices from explanted lung tissue from a patient with biopsy-confirmed, idiopathic pulmonary fibrosis (IPF) were cultured for 6 days. Treatments were applied to 6 replicate slices per treatment on Day 2 of culture and replaced daily on Days 3, 4, and 5 of culture.
For generating the results of secreted marker (% daily average change) shown in FIG. 6A, spent medium (24-hr intervals) was collected on Days 3, 4, 5, and 6 to measure secretion by ELISA of six markers of inflammation and fibrosis: monocyte chemoattractant protein (MCP-1), interleukin-6 (IL-6), matrix metalloproteinase-7 (MMP-7), tissue inhibitor of metalloproteinase-1 (TIMP1), hyaluronic acid, and collagen 1α1. The mean level of secretion from 6 replicate slices for each drug treatment was expressed as a percentage change relative to DMSO vehicle treatment for each day of treatment, and then the mean percentage change from 4 daily treatment intervals was calculated.

Data set [6] relates to human precision cut liver slices (PCLS). The data set is described as follows: PCLS Sirius red tissue fibrosis, Nonstimulation Protocol. It is filed as cell-based. The following applies: 6 days of culture in the absence of exogenous TGFβ+PDGF-BB; most CRV431-treated slices. On the procedure:
(§2) PCLS were obtained from 5 human donors who underwent resection of liver cancer. Replicate slices were collected from healthy margins of the resections and cultured for 4 or 6 days depending on the experimental protocol. In the Nonstimulation Protocol slices were cultured for 6 days and treated for the entire period with DMSO vehicle or 5 μM CRV431. In the Stimulation Protocol slices were rested for 1 day and then administered the cytokines, TGFβ and PDGF-BB, for 3 days to stimulate inflammation and fibrosis. […]
(§3) Four types of evaluations were conducted on the PCLS: (a) secretion of inflammation and fibrosis biomarkers into the culture medium, (b) histological staining and quantitation of Sirius red as a measure of tissue fibrosis, (c) gene expression of inflammation and fibrosis biomarkers by RT-PCR, and (d) RNA sequencing (RNA-Seq) of the complete transcriptome. […] ELISAs were used to quantify secretion of monocyte chemoattractant protein (MCP-1), interleukin-6 (IL-6), tissue inhibitor of metalloproteinase-1 (TIMP1), hyaluronic acid, fibronectin, and collagen 1α1. For each donor the mean level of biomarker secretion in each treatment group was expressed as a percentage change relative to DMSO vehicle, the percentages averaged for all donors, and finally the mean daily percentage change calculated from all days of evaluation. […]

The test system is the same in data set [7]. Put plainly: PCLS gene expression by RT-PCR. It is filed as cell-based. On the procedure: PCLS were obtained from 5 human donors who underwent resection of liver cancer. Replicate slices were collected from healthy margins of the resections and cultured for 4 or 6 days depending on the experimental protocol. In the Nonstimulation Protocol slices were cultured for 6 days and treated for the entire period with DMSO vehicle or 5 μM CRV431. In the Stimulation Protocol slices were rested for 1 day and then administered the cytokines, TGFβ and PDGF-BB, for 3 days to stimulate inflammation and fibrosis. DMSO vehicle, CRV431 (1 and 5 μM), Alk5i (10 μM), obeticholic acid (5 μM), elafibranor (5 μM), resmetirom ([…]), and Aramchol (5 μM) were administered individually as drug treatments in the Stimulation Protocol concurrent with TGFβ+PDGF-BB. Culture medium treatments were replaced daily.
Four types of evaluations were conducted on the PCLS: (a) secretion of inflammation and fibrosis biomarkers into the culture medium, (b) histological staining and quantitation of Sirius red as a measure of tissue fibrosis, (c) gene expression of inflammation and fibrosis biomarkers by RT-PCR, and (d) RNA sequencing (RNA-Seq) of the complete transcriptome. Each of the four types of evaluation is described below: • (a) Biomarker secretion. Spent culture medium was collected daily from duplicate slices for each treatment. ELISAs were used to quantify secretion of monocyte chemoattractant protein (MCP-1), interleukin-6 (IL-6), tissue inhibitor of metalloproteinase-1 (TIMP1), hyaluronic acid, fibronectin, and collagen 1α1. For each donor the mean level of biomarker secretion in each treatment group was expressed as a percentage change relative to DMSO vehicle, the percentages averaged for all donors, and finally the mean daily percentage change calculated from all days of evaluation. […] Sirius red was quantified morphometrically in the histological sections as the percentage area with Sirius red staining in 10 sections from each treatment. In the Nonstimulation Protocol the quantity of Sirius red staining was expressed relative to the vehicle group. In the Stimulation Protocol the quantity of Sirius red staining was expressed relative to nonstimulated PCLS (0%) and TGFβ+PDGF-BB-stimulated+vehicle PCLS (100%). […] RNA was isolated from duplicate liver slices per treatment at the end of the experiments and evaluated by RT-PCR for 5 markers of inflammation and fibrosis: MCP-1, IL-6, TIMP1, αSMA, and collagen 1α1. β actin was used as a reference gene to calculate relative levels of each target gene RNA. […] RNA sequencing of the complete transcriptome (30 million reads per sample) was conducted on vehicle and 5 μM CRV431 treatment groups from 3 donors both from the Nonstimulation and Stimulation Protocols. […]

Data set [8] shares this test system. Put plainly: PCLS RNA-Seq, general statements (protocol not stated). The format is cell-based. On the procedure:
as §2, §3

Another data set has as its system liver. The following applies: a number of in vivo models; cited from earlier work.

Consider `CC[C@@H]1NC(=O)[C@H]([C@H](O)[C@H](C)CCCCCCNC(C)=O)N(C)C(=O)[C@H](C(C)C)N(C)C(=O)[C@H](CC(C)C)N(C)C(=O)[C@H](CC(C)C)N(C)C(=O)[C@@H](C)NC(=O)[C@H](C)NC(=O)[C@H](CC(C)C)N(C)C(=O)[C@H](C(C)C)NC(=O)[C@H](CC(C)C)N(C)C(=O)[C@@H](C)N(C)C1=O` [CRV431], for which the cell viability entry in [1] is recorded as “none of the CRV431 treatments affected cell viability”; in [2], “none of the CRV431 treatments affected cell viability”; in data set [4], “without causing any reduction in cell viability”. Further, the “decrease of ECM production” value in data set [3] is reported as “up to 55%”. Further, the “mean daily secretion of all markers (MCP-1, IL-6, MMP-7, TIMP1, hyaluronic acid, collagen 1α1)” value in data set [5] was “decreased”. In addition, the “tissue fibrosis vs vehicle-treated slices” value in [6] was “less fibrosis than vehicle-treated slices”. The “gene expression of all markers” value in data set [7] (CRV431 applied at 5 μM, markers MCP-1, IL-6, TIMP1, αSMA, collagen 1α1) was “decreased”. Besides, in data set [7] (qRT-PCR), the “RNA levels of collagen1α1, αSMA, TIMP1, IL-6, and MCP-1” value is on record as “reductions in RNA levels”. Further, in data set [8], the “expression of many fibrosis-related genes (more than 10 collagen genes, collagen hydroxylases and oxidases, ACTA2, VEGF, TIMPs)” value is “decreased expression”. For the same compound, the “anti-fibrotic activity in the liver” value with liver was “anti-fibrotic activity”.

Source of the values: US12409206B2, “Use of cyclosporine analogues for treating fibrosis” (Hepion Pharmaceuticals, Inc., priority 2020, dated 2025).
